From PMC11111408, “Concurrent inhibition of oncogenic and wild-type RAS-GTP for cancer therapy” (Nature, 2024)

Tested on: PRISM DNA-barcoded human tumour cell lines
Assay: PRISM pooled cell viability assay;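 as to PRISM AUC: 8 threefold dilutions from 10 µM with 5 days of exposure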
Format: cell-based
Set-up: AUC (PRISM viability) / AUC (PRISM): unit not given beside the values
Conditions: for AUC (PRISM viability): WT; for PRISM AUC: KRAS MUT
Procedure: Cells were then lysed in TCL mRNA lysis buffer, and then PCR with reverse transcription was performed. Detection of the barcodes and univariate and multivariate analysis was then performed as previously described. Data analysis is described in the Supplementary Methods. Up-to-date code for our analysis is at the github link: https://github.com/cmap/dockerized_mts.
For every gene with non-silent mutations in at least four cell-lines, we compared the AUC values between cells with and without those mutations using a t-test. This analysis was carried out for: (i) the full dataset; (ii) excluding cell lines with non-silent KRAS mutations; and (iii) excluding cell lines that have either KRAS or NRAS non-silent mutations.

Structure (SMILES): CCn1c(-c2cc(N3CCN(C4CC4)CC3)cnc2[C@H](C)OC)c2c3cc(ccc31)-c1csc(n1)C[C@H](NC(=O)[C@H]1[C@@H]3COC[C@@H]31)C(=O)N1CCC[C@H](N1)C(=O)OCC(C)(C)C2 [RMC-7977]
- AUC (PRISM viability) (HUG1N_STOMACH): 0.8055
- AUC (PRISM viability) (HUH1_LIVER): 0.7529
- AUC (PRISM viability) (HUH6_LIVER): 0.7376
- AUC (PRISM viability) (HUH7_LIVER): 0.8557
- AUC (PRISM viability) (HUH28_BILIARY_TRACT): 0.8029
- PRISM AUC (HUPT3_PANCREAS): 0.1666
- PRISM AUC (HUPT4_PANCREAS): 0.2071
- PRISM AUC (IALM_LUNG): 0.3346
- AUC (PRISM viability) (IGR1_SKIN): 0.9019
- AUC (PRISM viability) (IGR37_SKIN): 0.7982
- AUC (PRISM viability) (IGR39_SKIN): 0.9854
- AUC (PRISM viability) (IGROV1_OVARY): 0.7964
- AUC (PRISM viability) (IM95_STOMACH): 0.4996
- AUC (PRISM viability) (IPC298_SKIN): 0.1645
- AUC (PRISM viability) (ISHIKAWAHERAKLIO02ER_ENDOMETRIUM): 0.7979
- AUC (PRISM viability) (ISTMES2_PLEURA): 1
- AUC (PRISM viability) (J82_URINARY_TRACT): 0.7456
- AUC (PRISM viability) (JEKO1_HAEMATOPOIETIC_AND_LYMPHOID_TISSUE): 0.8585
- AUC (PRISM viability) (JHH1_LIVER): 0.2992
- AUC (PRISM viability) (JHH4_LIVER): 0.7822
- AUC (PRISM viability) (JHH5_LIVER): 0.337
- AUC (PRISM viability) (JHH6_LIVER): 0.6328
- AUC (PRISM viability) (JHH7_LIVER): 0.6689
- AUC (PRISM viability) (JHOC5_OVARY): 0.6127
- AUC (PRISM viability) (JHOM1_OVARY): 0.7183
- AUC (PRISM viability) (JHOS2_OVARY): 0.6659
- AUC (PRISM viability) (JHUEM2_ENDOMETRIUM): 0.722
- AUC (PRISM viability) (JIMT1_BREAST): 0.6067
- AUC (PRISM viability) (JJN3_HAEMATOPOIETIC_AND_LYMPHOID_TISSUE): 0.5546
- AUC (PRISM viability) (JL1_PLEURA): 0.8348
- AUC (PRISM viability) (JM1_HAEMATOPOIETIC_AND_LYMPHOID_TISSUE): 0.8697
- AUC (PRISM viability) (JMSU1_URINARY_TRACT): 0.7968
- AUC (PRISM viability) (JURKAT_HAEMATOPOIETIC_AND_LYMPHOID_TISSUE): 1
- AUC (PRISM viability) (JURLMK1_HAEMATOPOIETIC_AND_LYMPHOID_TISSUE): 0.263
- AUC (PRISM viability) (JVM3_HAEMATOPOIETIC_AND_LYMPHOID_TISSUE): 0.6896
- AUC (PRISM viability) (K029AX_SKIN): 0.9507
- AUC (PRISM viability) (K562_HAEMATOPOIETIC_AND_LYMPHOID_TISSUE): 0.4372
- AUC (PRISM viability) (KALS1_CENTRAL_NERVOUS_SYSTEM): 0.7464
- AUC (PRISM viability) (KARPAS299_HAEMATOPOIETIC_AND_LYMPHOID_TISSUE): 0.6122
- PRISM AUC (KARPAS620_HAEMATOPOIETIC_AND_LYMPHOID_TISSUE): 0.3529
- AUC (PRISM viability) (KATOIII_STOMACH): 0.4955
- AUC (PRISM viability) (KCL22_HAEMATOPOIETIC_AND_LYMPHOID_TISSUE): 0.4527
- AUC (PRISM viability) (KE37_HAEMATOPOIETIC_AND_LYMPHOID_TISSUE): 0.4418
- AUC (PRISM viability) (KE39_STOMACH): 0.6732
- AUC (PRISM viability) (KELLY_AUTONOMIC_GANGLIA): 0.7861
- PRISM AUC (KHM1B_HAEMATOPOIETIC_AND_LYMPHOID_TISSUE): 0.496
- AUC (PRISM viability) (KLE_ENDOMETRIUM): 0.8932
- AUC (PRISM viability) (KMBC2_URINARY_TRACT): 0.2167
- AUC (PRISM viability) (KMH2_HAEMATOPOIETIC_AND_LYMPHOID_TISSUE): 0.7624
- AUC (PRISM viability) (KMRC1_KIDNEY): 1
- AUC (PRISM viability) (KMRC3_KIDNEY): 0.8631
- AUC (PRISM viability) (KMRC20_KIDNEY): 0.5322
- AUC (PRISM viability) (KMS11_HAEMATOPOIETIC_AND_LYMPHOID_TISSUE): 0.6264
- AUC (PRISM viability) (KMS18_HAEMATOPOIETIC_AND_LYMPHOID_TISSUE): 0.2086
- AUC (PRISM viability) (KMS27_HAEMATOPOIETIC_AND_LYMPHOID_TISSUE): 0.3359
- AUC (PRISM viability) (KMS34_HAEMATOPOIETIC_AND_LYMPHOID_TISSUE): 0.4857
- AUC (PRISM viability) (KNS42_CENTRAL_NERVOUS_SYSTEM): 0.8285
- AUC (PRISM viability) (KNS60_CENTRAL_NERVOUS_SYSTEM): 0.8415
- AUC (PRISM viability) (KNS62_LUNG): 0.4354
- AUC (PRISM viability) (KNS81_CENTRAL_NERVOUS_SYSTEM): 0.5354
- PRISM AUC (KOPN8_HAEMATOPOIETIC_AND_LYMPHOID_TISSUE): 0.2801
- PRISM AUC (KP2_PANCREAS): 0.2975
- PRISM AUC (KP3_PANCREAS): 0.3778
- PRISM AUC (KP4_PANCREAS): 0.4423
- AUC (PRISM viability) (KS1_CENTRAL_NERVOUS_SYSTEM): 0.4806
- AUC (PRISM viability) (KU1919_URINARY_TRACT): 0.2273
- AUC (PRISM viability) (KURAMOCHI_OVARY): 1
- AUC (PRISM viability) (KYM1_SOFT_TISSUE): 0.3526
- AUC (PRISM viability) (KYO1_HAEMATOPOIETIC_AND_LYMPHOID_TISSUE): 0.2345
- AUC (PRISM viability) (KYSE30_OESOPHAGUS): 0.402
- AUC (PRISM viability) (KYSE70_OESOPHAGUS): 0.7015
- AUC (PRISM viability) (KYSE140_OESOPHAGUS): 0.5343
- AUC (PRISM viability) (KYSE150_OESOPHAGUS): 0.4708
- AUC (PRISM viability) (KYSE180_OESOPHAGUS): 0.5999
- AUC (PRISM viability) (KYSE270_OESOPHAGUS): 0.564
- PRISM AUC (KYSE410_OESOPHAGUS): 0.2588
- AUC (PRISM viability) (KYSE450_OESOPHAGUS): 0.34
- AUC (PRISM viability) (KYSE510_OESOPHAGUS): 0.4594
- AUC (PRISM viability) (KYSE520_OESOPHAGUS): 0.4602
- PRISM AUC (L33_PANCREAS): 0.3993
- AUC (PRISM viability) (L363_HAEMATOPOIETIC_AND_LYMPHOID_TISSUE): 0.6953
- AUC (PRISM viability) (LAMA84_HAEMATOPOIETIC_AND_LYMPHOID_TISSUE): 0.3291
- AUC (PRISM viability) (LCLC103H_LUNG): 0.6805
- AUC (PRISM viability) (LI7_LIVER): 0.4821
- AUC (PRISM viability) (LK2_LUNG): 0.4878
- AUC (PRISM viability) (LMSU_STOMACH): 0.6242
- AUC (PRISM viability) (LN18_CENTRAL_NERVOUS_SYSTEM): 0.6382
- AUC (PRISM viability) (LN229_CENTRAL_NERVOUS_SYSTEM): 0.6899
- AUC (PRISM viability) (LN382_CENTRAL_NERVOUS_SYSTEM): 0.6351
- AUC (PRISM viability) (LNCAPCLONEFGC_PROSTATE): 0.7528
- AUC (PRISM viability) (LNZ308_CENTRAL_NERVOUS_SYSTEM): 0.4353
- AUC (PRISM viability) (LOUNH91_LUNG): 0.4098
- PRISM AUC (LOVO_LARGE_INTESTINE): 0.4131
- AUC (PRISM viability) (LOXIMVI_SKIN): 1
- PRISM AUC (LS180_LARGE_INTESTINE): 0.2098
- AUC (PRISM viability) (LS411N_LARGE_INTESTINE): 1
- PRISM AUC (LS513_LARGE_INTESTINE): 0.2181
- PRISM AUC (LU99_LUNG): 0.2453
- AUC (PRISM viability) (LUDLU1_LUNG): 0.5495
- AUC (PRISM viability) (LXF289_LUNG): 0.5423
- AUC (PRISM viability) (M059K_CENTRAL_NERVOUS_SYSTEM): 0.9015
- AUC (PRISM viability) (MALME3M_SKIN): 0.9889
- AUC (PRISM viability) (MC116_HAEMATOPOIETIC_AND_LYMPHOID_TISSUE): 0.9825
- PRISM AUC (MCAS_OVARY): 0.3593
- AUC (PRISM viability) (MCF7_BREAST): 0.8582
- AUC (PRISM viability) (MDAMB175VII_BREAST): 0.5383
- PRISM AUC (MDAMB231_BREAST): 0.478
- AUC (PRISM viability) (MDAMB361_BREAST): 0.7391
- AUC (PRISM viability) (MDAMB435S_SKIN): 0.9518
- AUC (PRISM viability) (MDAMB436_BREAST): 0.9067
- AUC (PRISM viability) (MDAMB453_BREAST): 0.3963
- AUC (PRISM viability) (MDAMB468_BREAST): 0.5525
- AUC (PRISM viability) (MDST8_LARGE_INTESTINE): 0.7229
- AUC (PRISM viability) (MELHO_SKIN): 0.9921
- AUC (PRISM viability) (MELJUSO_SKIN): 0.3578
- AUC (PRISM viability) (MESSA_SOFT_TISSUE): 0.9559
- AUC (PRISM viability) (MEWO_SKIN): 0.6173
- AUC (PRISM viability) (MFE280_ENDOMETRIUM): 0.5252
- AUC (PRISM viability) (MFE296_ENDOMETRIUM): 0.9033
- AUC (PRISM viability) (MFE319_ENDOMETRIUM): 0.8155
- AUC (PRISM viability) (MG63_BONE): 0.7861
- AUC (PRISM viability) (MHHES1_BONE): 0.8525
- AUC (PRISM viability) (MHHNB11_AUTONOMIC_GANGLIA): 0.4191
- PRISM AUC (MIAPACA2_PANCREAS): 0.1568
- AUC (PRISM viability) (MKN1_STOMACH): 0.5983
- AUC (PRISM viability) (MKN7_STOMACH): 0.4769
- AUC (PRISM viability) (MKN45_STOMACH): 0.1583
- AUC (PRISM viability) (MKN74_STOMACH): 0.7438
- AUC (PRISM viability) (MOLM13_HAEMATOPOIETIC_AND_LYMPHOID_TISSUE): 0.4032
- AUC (PRISM viability) (MOLP2_HAEMATOPOIETIC_AND_LYMPHOID_TISSUE): 0.65
- AUC (PRISM viability) (MOLT16_HAEMATOPOIETIC_AND_LYMPHOID_TISSUE): 0.6383
- AUC (PRISM viability) (MONOMAC1_HAEMATOPOIETIC_AND_LYMPHOID_TISSUE): 0.7673
- AUC (PRISM viability) (MONOMAC6_HAEMATOPOIETIC_AND_LYMPHOID_TISSUE): 0.6964
